# Data: patent US10508099B2, “Isoquinolin-3-yl carboxamides and preparation and use thereof” (Samumed, LLC, priority 2016, dated 2019)
# Like-named read-outs stand apart in the source and are kept apart here.
# Legend:
# IL-6 in huPBMCs = assay: IL-6 inhibition in LPS-stimulated human peripheral blood mononuclear cells (HTRF); format: cell-based; details: for percent in parentheses beside EC50 >10 μM: LPS-stimulated huPBMCs, given only where EC50 >10 μM (top concentration 10 μM); for EC50: LPS-stimulated (50 ng/mL) huPBMCs, 22 hours, dose-response starting from 10 μM
# Procedure: After 22 hour incubation, a mixture of anti-IL6 XL665 and anti-IL-6 Cryptate diluted in reconstitution buffer (Catalog #62IL6PEC, Cisbio Inc., Bedford, Mass.) was added to each well. […] All samples were processed in duplicate. […] EC50 was determined using software generated by Dotmatics Limited (Windhill Bishops Stortford Herts, UK) using the Levenberg-Marquardt 4 parameter fitting procedure with finite different gradients.
# [1] = tested on: SW480 colon carcinoma cells; assay: Cell viability assay (CellTiter-Glo) in SW480 cells; format: cell-based, human; details: for EC50: four days incubation
# [2] = tested on: α-smooth muscle actin (αSMA) in LL29 cells; assay: Fibrosis assay: TGF-β1 treated primary human fibroblasts from IPF patients (LL29), αSMA staining; format: cell-based; details: for EC50: LL29 cells treated with TGF-β1 (20 ng/mL), 4 days; for percent in parentheses beside EC50 >10 μM: LL29 cells treated with TGF-β1, given only where EC50 >10 μM (top concentration 10 μM)
# [3] = tested on: Tau phosphorylation at Ser396 (pSer396) in SH-SY5Y cells; assay: Tau phosphorylation (pSer396) assay in SH-SY5Y cells, ELISA/western blot; format: cell-based, human
# Procedure: Two days before treatment, cells were seeded onto 96 well plates at 5×10^4 cells/well.
# Wells were visually checked for cell death or change in morphology and supernatants were tested for cytotoxicity by measurement of lactate dehydrogenase release (LDH, CytoToxOne kit, Promega) if necessary.
# Cells were lysed with RIPA buffer complemented with phosphatase and protease inhibitors then lysates were spun down at 12,000 g for 10 min to remove any cellular debris. Lysates are then either directly tested for pSer396 by ELISA (Life Technology, Kit KHB7031) or loaded on NuPage Bis-Tris gels for western blot analysis. Colorimetric detection of ELISA signal is performed by Cytation3 plate reader (Biotek) and the chemiluminescence signal for HRP-linked antibodies used in western blotting is detected using a Carestream Image Station. The same pSer396 antibody is used for detection of pTau in both assays.
# [4] = tested on: Wnt activity (Sp5-Luc reporter, TCF/LEF binding sites) in SW480 colon carcinoma cells; assay: Screening assay for Wnt activity: Sp5-Luc reporter gene assay in SW480 cells; format: cell-based, human; details: 36 to 48 hours
# Procedure: The screening assay for Wnt activity is described as follows.
# Following incubation, 15 μl of BriteLite Plus luminescence reagent (Perkin Elmer) was added to each well of the 384-well assay plates. The plates were placed on an orbital shaker for 2 min and then luminescence was quantified using the Envision (Perkin Elmer) plate reader.
# DYRK1A kinase = DYRK1A kinase (Homo sapiens (Human), UniProt Q13627); assay: DYRK1A kinase assay (Ser/Thr 18 peptide Z-lyte FRET); format: biochemical
# TNFα, BV-2 cells = assay: Secreted cytokines in Lipopolysaccharide-stimulated BV-2 mouse microglial cells: TNFα; format: cell-based; details: LPS 250 ng/mL for 5 h
# Procedure: (§1) Representative compounds were screened using the cell-based assay procedure for secreted cytokines in a Lipopolysaccharide-stimulated mouse glial cell line described below.
# (§2) BV-2 cells (mouse microglial cells) were cultured in 1:1 DMEM medium supplemented with 10% FBS, and 1% penicillin/streptomycin.
# (§3) BV-2 cells are plated at 35,000 cells/well in a volume of 100 ul for at least 4 hours before compounds are added. DMSO-resuspended compounds were first dispensed in a 96 well plate and serial diluted from 10 μM to 4.6 nM final concentration in medium. Compounds were added to cells overnight. Two hundred fifty ng per milliliter of lipopolysaccharide (Escherichia coli 055:B5, SIGMA) was added for 5 h. Supernatant is removed and saved for further cytokine detection. The original plates with seeded cells were tested for cytotoxicity by measure of adenosine triphosphate (ATP) release by adding CellTiter-Glo® diluted 1:4 in distilled water (G7573, Promega) and transferring lysed cells to a completely black 96-well plate to be read with the Cytation3. Supernatant was then diluted 1:2 with a diluent from V-PLEX cytokine Kit and directly tested for the secreted cytokines TNFα, IL-6 and KC-GRO using electrochemiluminescence (Meso Scale Discovery). The standard curve for each cytokine was used to convert the electrochemiluminescent signal into pg of protein per mL.
# IL-6, BV-2 cells = assay: Secreted cytokines in Lipopolysaccharide-stimulated BV-2 mouse microglial cells: IL-6; format: cell-based; details: LPS 250 ng/mL for 5 h
# Procedure: as §1, §2, §3
# GSK3β kinase = GSK3β kinase (Homo sapiens (Human), UniProt P49841); assay: GSK3β kinase assay (Ser/Thr 09 peptide Z-lyte FRET); format: biochemical
# KC-GRO, BV-2 cells = assay: Secreted cytokines in Lipopolysaccharide-stimulated BV-2 mouse microglial cells: KC-GRO; format: cell-based; details: LPS 250 ng/mL for 5 h
# Procedure: as §1, §2, §3
# [5] = tested on: secreted β-amyloid 40 (Aβ40) peptide, SH-SY5Y-APP cells; assay: Secreted β-amyloid 40 peptide assay in APP overexpressing SH-SY5Y-APP cells; format: cell-based; details: Homo sapiens, overnight (16-18 hours)
# Procedure: Representative compounds were screened using the cell-based assay procedure for secreted β-amyloid 40 (Aβ340) peptide in an APP overexpressing cell line described below.
# SH-SY5Y cells were infected with lentivirus to overexpress amyloid (A4) beta precursor protein (APP), hereafter referred to as the SH-SY5Y-APP cells. […] Culture medium was changed 18 h post-transfection before a first batch of viral supernatant was then harvested at 42 h post-transfection. Culture medium was replenished once more before a second batch of viral supernatant was harvested 66 h post-transfection.
# SH-SY5Y cells were seeded onto 6-well plates at 5.0×10^5 cells/well and incubated overnight at 37° C. Cells were then infected with viral supernatant at concentrations ranging from 10%→100% viral supernatant (diluted in Opti-MEM as appropriate), with 10 μg/mL Polybrene added for permeability (H9268, Sigma). […]
# The cell assay procedure start 18 h prior to treatment, as SH-SY5Y-APP cells were seeded onto 96-well plates at 2.0×10^4 cells/well. […] The original plates with seeded cells were tested for cytotoxicity by measure of adenosine triphosphate (ATP) release by adding CellTiter-Glo® diluted 1:4 in distilled water (G7573, Promega) and transferring lysed cells to a completely black 96-well plate to be read with the Cytation3. […]
# [6] = overnight (16-18 h) exposure, pSer396 Tau ELISA, read-out: pSer396 Tau EC50
# [7] = DYRK1A kinase Z-lyte assay, 30 μM ATP, one hour at room temperature, text calls values IC50
# [8] = GSK3β kinase Z-lyte assay, 46 μM ATP, one hour at room temperature, text calls values IC50
# [9] = Homo sapiens, Fibroblast, 96 h, dose-response 10 μM to 0.94 nM
# [10] = Homo sapiens, overnight (16-18 h) exposure, pSer396 Tau ELISA, read-out: pSer396 Tau EC50
# Chain of GSK3β kinase (P49841 whole entry): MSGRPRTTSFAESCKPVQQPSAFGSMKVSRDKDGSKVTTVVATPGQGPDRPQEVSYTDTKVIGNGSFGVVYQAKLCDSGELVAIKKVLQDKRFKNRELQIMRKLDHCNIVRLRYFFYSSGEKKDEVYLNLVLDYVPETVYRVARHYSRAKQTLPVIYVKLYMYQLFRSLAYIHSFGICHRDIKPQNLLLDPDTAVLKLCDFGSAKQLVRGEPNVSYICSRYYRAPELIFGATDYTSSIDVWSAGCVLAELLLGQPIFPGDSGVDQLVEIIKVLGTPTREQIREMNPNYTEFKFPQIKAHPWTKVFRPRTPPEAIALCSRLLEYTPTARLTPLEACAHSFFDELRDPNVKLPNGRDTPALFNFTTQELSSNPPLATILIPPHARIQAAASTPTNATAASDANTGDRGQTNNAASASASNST
compound,measurement,setting,value
"Cc1nnc(-c2ccc3cnc(NC(=O)CN4C5CCC4CC5)cc3c2)s1 [Compound 959, 2-(7-Azabicyclo[2.2.1]heptan-7-yl)-N-(6-(5-methyl-1,3,4-thiadiazol-2-yl)isoquinolin-3-yl)acetamide]",percent in parentheses beside EC50 >10 μM,IL-6 in huPBMCs,6.1%
"1-Isobutyl-N-(6-(5-methyl-1,3,4-oxadiazol-2-yl)isoquinolin-3-yl)piperidine-4-carboxamide [Compound 1020]",EC50,[1],1030 nM
same,EC50,[2]; dose-response 10 μM to […],> 10000 nM
same,percent in parentheses beside EC50 >10 μM,[2],30.6%
same,EC50,[3]; [6],49 nM
same,EC50,IL-6 in huPBMCs,1180 nM
same,EC50,[4],1140 nM
same,EC50,DYRK1A kinase; [7],10.4 nM
same,EC50,"TNFα, BV-2 cells",597 nM
same,EC50,"IL-6, BV-2 cells",87 nM
same,EC50,GSK3β kinase; [8],13 nM
same,EC50,"KC-GRO, BV-2 cells",708 nM
"Cn1cc(-c2ccc3cnc(NC(=O)CN4C5CCC4CC5)cc3c2)nn1 [Compound 513, 2-(7-Azabicyclo[2.2.1]heptan-7-yl)-N-(6-(1-methyl-1H-1,2,3-triazol-4-yl)isoquinolin-3-yl)acetamide]",percent in parentheses beside EC50 >10 μM,IL-6 in huPBMCs,14.5%
"Cn1cc(-c2ccc3cnc(NC(=O)C45CCN(CC4)CC5)cc3c2)cn1 [Compound 1071, N-(6-(1-Methyl-1H-pyrazol-4-yl)isoquinolin-3-yl)quinuclidine-4-carboxamide]",percent in parentheses beside EC50 >10 μM,IL-6 in huPBMCs,8.8%
"Cc1nnc(-c2ccc3cnc(NC(=O)CN4C5CCC4COC5)cc3c2)s1 [Compound 962, 2-(3-Oxa-8-azabicyclo[3.2.1]octan-8-yl)-N-(6-(5-methyl-1,3,4-thiadiazol-2-yl)isoquinolin-3-yl)acetamide]",percent in parentheses beside EC50 >10 μM,IL-6 in huPBMCs,9.6%
"CN1CCN(C[C@H]2CC[C@H](C(=O)Nc3cc4cc(-c5cnco5)ccc4cn3)CC2)CC1 [Compound 1007, trans-4-((4-methylpiperazin-1-yl)methyl)-N-(6-(oxazol-5-yl)isoquinolin-3-yl)cyclohexane-1-carboxamide]",EC50,"[1]; Homo sapiens, 96 h",922 nM
same,EC50,[2]; [9],942 nM
same,EC50,[3]; [10],435 nM
same,EC50,"IL-6 in huPBMCs; Homo sapiens, PBMC",1260 nM
same,EC50,[4]; Homo sapiens,1130 nM
same,EC50,DYRK1A kinase; [7],2.4 nM
same,EC50,GSK3β kinase; [8],83 nM
"Cc1nnc(-c2ccc3cnc(NC(=O)CN4CCCOCC4)cc3c2)s1 [Compound 1049, N-(6-(5-Methyl-1,3,4-thiadiazol-2-yl)isoquinolin-3-yl)-2-(1,4-oxazepan-4-yl) acetamide]",percent inhibition at 10 μM,"[1]; at 10 μM, given for EC50 of >10 μM",31.3%
same,EC50,[1],> 10000 nM
same,EC50,[3]; [6],319 nM
same,EC50,IL-6 in huPBMCs,> 10000 nM
same,percent in parentheses beside EC50 >10 μM,IL-6 in huPBMCs,10.4%
same,EC50,[4],2540 nM
"Cn1cc(-c2ccc3cnc(NC(=O)CN4C5CCC4COC5)cc3c2)cn1 [Compound 347, 2-(3-Oxa-8-azabicyclo[3.2.1]octan-8-yl)-N-(6-(1-methyl-1H-pyrazol-4-yl)isoquinolin-3-yl)acetamide]",percent in parentheses beside EC50 >10 μM,IL-6 in huPBMCs,4.5%
"Cn1cc(-c2ccc3cnc(NC(=O)C4C(C)(C)C4(C)C)cc3c2)nn1 [Compound 277, 2,2,3,3-Tetramethyl-N-(6-(1-methyl-1H-1,2,3-triazol-4-yl)isoquinolin-3-yl) cyclopropane-1-carboxamide]",percent in parentheses beside EC50 >10 μM,IL-6 in huPBMCs,4.0%
"CCN1/C(=C/C(C)=O)Sc2ccc(O)cc21 [Indy, reference compound]",EC50,"[3]; control compounds, read-out: EC50 in the Tau assay",> 10000 nM
"CC(C)CN1CCC[C@@H](C(=O)Nc2cc3cc(-c4cnn5c4CN(CCF)CC5)ccc3cn2)C1 [Compound 1002, (R)—N-(6-(5-(2-Fluoroethyl)-4,5,6,7-tetrahydropyrazolo[1,5-a]pyrazin-3-yl)isoquinolin-3-yl)-1-isobutylpiperidine-3-carboxamide]",percent in parentheses beside EC50 >10 μM,[2],27.5%
"Cn1cc(-c2ccc3cnc(NC(=O)C4CCN(CC(C)(C)O)CC4)cc3c2)nn1 [Compound 1070, 1-(2-Hydroxy-2-methylpropyl)-N-(6-(1-methyl-1H-1,2,3-triazol-4-yl)isoquinolin-3-yl)piperidine-4-carboxamide]",EC50,"[1]; Homo sapiens, 96 h",8390 nM
same,EC50,[3]; [10],91 nM
same,EC50,"IL-6 in huPBMCs; Homo sapiens, PBMC",6470 nM
same,EC50,[4]; Homo sapiens,738 nM
same,EC50,DYRK1A kinase,7.6 nM
same,EC50,"IL-6, BV-2 cells; Mus musculus",14 nM
same,EC50,GSK3β kinase,16 nM
"Cn1cncc1-c1ccc2cnc(NC(=O)C3C(C)(C)C3(C)C)cc2c1 [Compound 269, 2,2,3,3-Tetramethyl-N-[6-(3-methylimidazol-4-yl)-3-isoquinolyl]cyclopropanecarboxamide]",IC50,[5],> 10000 nM
"CO[C@H]1CC[C@@H](C(=O)Nc2cc3cc(-c4nnc(C)s4)ccc3cn2)CC1 [Compound 1001, cis-4-Methoxy-N-(6-(5-methyl-1,3,4-thiadiazol-2-yl)isoquinolin-3-yl) cyclohexane-1-carboxamide]",inhibition at 10 µM,"IL-6 in huPBMCs; Homo sapiens, PBMC, read-out: percent in parentheses beside EC50 >10 μM",49.7%
"C[C@H](F)CN1CCC(C(=O)Nc2cc3cc(-c4cnn(C)c4)ccc3cn2)CC1 [Compound 311, (S)-1-(2-Fluoropropyl)-N-(6-(1-methyl-1H-pyrazol-4-yl)isoquinolin-3-yl) piperidine-4-carboxamide]",EC50,"[1]; Homo sapiens, 96 h",751 nM
same,EC50,[2]; [9],76 nM
same,EC50,[3]; [10],163 nM
same,EC50,"IL-6 in huPBMCs; Homo sapiens, PBMC",396 nM
same,EC50,[4]; Homo sapiens,578 nM
